Laboratory results published in US5543415A, “Antidepressants” (Kyowa Hakko Kogyo Co., Ltd., priority 1992, dated 1996).
Read-outs that look alike come from different tables or passages of the source.

Tests used:
[1] = tested on: clonidine-induced aggressive behavior; assay: Effect on Clonidine-Induced Aggressive Behavior (number of biting attacks during 30 minutes); format: in vivo, male ddY mice; details: po; for Number of the Biting Attacks (mean ± S.E.M.), Test Compound-Treated Group: 60 min before clonidine 20 mg/kg ip, 30 min count
Description: The effect of a test compound on the aggressive behavior induced by intraperitoneal administration of clonidine was investigated. […] The experiment was performed by using several groups of male ddY mice (weighing 20 to 25 g, Japan SLC), each group consisting of two mice. The test compound was suspended in injectable distilled water (Otsuka Pharmaceutical Co., Ltd.) containing Tween 80 [polyoxyethylene (20) sorbitan monooleate]. Clonidine hydrochloride (Sigma Co.) was dissolved in physiological saline solution (Otsuka Pharmaceutical Co., Ltd.). The test compound suspension and the control suspension were orally administered to separate groups of the mice (0.1 ml per 10 g of body weight). Sixty minutes after the oral administration of the test compound, clonidine hydrochloride (20 mg/kg) was intraperitoneally injected. The number of biting attacks during 30 minutes after clonidine treatment was counted. The effect of the compound was evaluated by comparing the average number of biting attacks of the test compound-administered groups with that of control groups (Statistical comparison: Student's t-test).

ddY-strain male mice = assay: Acute Toxicity Test (minimum lethal dose, oral); format: in vivo; details: seven days after administration
Description: Test compounds were orally administered to groups of ddY-strain male mice weighing 20±1 g, each group consisting of three mice. Seven days after the administration, minimum lethal dose (MLD) of each compound was determined by observing the mortality.

[2] = Mus musculus, 0.63 mg/kg, read-out: Number of the Attacks of Test Compound-Treated Group/Number of the Attacks of Control Group
[3] = Mus musculus, 10 mg/kg, read-out: Number of the Attacks of Test Compound-Treated Group/Number of the Attacks of Control Group
[4] = Mus musculus, 2.5 mg/kg, read-out: Number of the Attacks of Test Compound-Treated Group/Number of the Attacks of Control Group

SMILES	Number of the Biting Attacks (mean ± S.E.M.), Test Compound-Treated Group ([1]; 10 mg/kg)	MLD (minimum lethal dose) (ddY-strain male mice)	response vs control in vivo at 10 mg/kg [1, 3]	other results
CCn1c(=O)c2c(nc(/C=C/c3ccc(OC)c(OC)c3OC)n2C)n(CC)c1=O [Compound 80, (E)-1,3-Diethyl-7-methyl-8-(2,3,4-trimethoxystyryl)xanthine]	67.5 ± 9.35	> 300 mg/kg	–	Number of the Biting Attacks (mean ± S.E.M.), Test Compound-Treated Group ([1]; 0.63 mg/kg): 30.3 ± 7.00; Number of the Biting Attacks (mean ± S.E.M.), Test Compound-Treated Group ([1]; 2.5 mg/kg): 59.3 ± 12.37; response vs control in vivo at 0.63 mg/kg [1, 2]: 470%
CCn1c(=O)c2c(nc(/C=C/c3ccc(F)cc3)n2C)n(CC)c1=O [Compound 150, (E)-1,3-Diethyl-8-(4-fluorostyryl)-7-methylxanthine]	42.1 ± 10.18	> 100 mg/kg	–	–
CCn1c(=O)c2c(nc(/C=C/c3ccc(OC)c(C)c3C)n2C)n(CC)c1=O [Compound 82, (E)-1,3-Diethyl-8-(4-methoxy-2,3-dimethylstyryl)-7-methylxanthine]	61.8 ± 11.89	> 300 mg/kg	800%	Number of the Biting Attacks (mean ± S.E.M.), Test Compound-Treated Group ([1]; 2.5 mg/kg): 59.0 ± 13.31; response vs control in vivo at 2.5 mg/kg ([1]; Mus musculus, read-out: Number of the Attacks of Test Compound-Treated Group/Number of the Attacks of Control Group): 910%
CCn1c(=O)c2c(nc(/C=C/c3ccc(OCc4ccccc4)cc3)n2C)n(CC)c1=O [Compound 185, (E)-8-(4-Benzyloxystyryl)-1,3-diethyl-7-methylxanthine]	46.9 ± 14.00	> 100 mg/kg	620%	–
CCn1c(=O)c2c(nc(/C=C/c3cccc(F)c3C)n2C)n(CC)c1=O [Compound 181, (E)-1,3-Diethyl-8-(3-fluoro-2-methylstyryl)-7-methylxanthine]	49.5 ± 9.09	> 100 mg/kg	800%	–
C=CCn1c(=O)c2c(nc(/C=C/c3cc(OC)c(OC)c(OC)c3)n2C)n(CC=C)c1=O [Compound 7, (E)-1,3-Diallyl-7-methyl-8-(3,4,5-trimethoxystyryl)xanthine]	–	> 300 mg/kg	–	Number of the Biting Attacks (mean ± S.E.M.), Test Compound-Treated Group ([1]; 2.5 mg/kg): 40.1 ± 8.36; response vs control in vivo at 2.5 mg/kg [1, 4]: 640%
CCn1c(=O)c2c(nc(/C=C/c3ccc(C)cc3)n2C)n(CC)c1=O [Compound 152, (E)-1,3-Diethyl-7-methyl-8-(4-methylstyryl)xanthine]	82.6 ± 23.07	> 100 mg/kg	670%	–
CCCn1c(=O)c2c(nc(/C=C/c3ccc(OC)cc3)n2C)n(CCC)c1=O [Compound 6, (E)-8-(4-Methoxystyryl)-7-methyl-1,3-dipropylxanthine]	83.7 ± 10.95	> 300 mg/kg	–	–
CCCn1c(=O)c2c(nc(/C=C/c3ccc(OCC)cc3)n2C)n(CCC)c1=O [Compound 49, (E)-8-(4-Ethoxystyryl)-7-methyl-1,3-dipropylxanthine]	81.5 ± 13.97	> 300 mg/kg	–	–
CCn1c(=O)c2c(nc(/C=C/c3ccc(OC)c(Br)c3)n2C)n(CC)c1=O [Compound 114, (E)-8-(3-Bromo-4-methoxystyryl)-1,3-diethyl-7-methylxanthine]	37.8 ± 8.66	> 100 mg/kg	–	–
C=CCn1c(=O)c2c(nc(/C=C/c3ccc(OC)c(OC)c3)n2C)n(CC=C)c1=O [Compound 70, (E)-1,3-Diallyl-8-(3,4-dimethoxystyryl)-7-methylxanthine]	60.3 ± 11.71	> 100 mg/kg	790%	–
CCn1c(=O)c2c(nc(/C=C/c3ccc(OC)cc3OC)n2C)n(CC)c1=O [Compound 78, (E)-8-(2,4-Dimethoxystyryl)-1,3-diethyl-7-methylxanthine]	32.1 ± 7.31	> 300 mg/kg	610%	–
CCn1c(=O)c2c(nc(/C=C/c3cc(OC)c(OC)c(OC)c3)n2C)n(CC)c1=O [Compound 4, (E)-1,3-diethyl-7-methyl-8-(3,4,5-trimethoxystyryl)xanthine]	51.3 ± 9.37	> 300 mg/kg	–	Number of the Biting Attacks (mean ± S.E.M.), Test Compound-Treated Group ([1]; 0.63 mg/kg): 25.3 ± 4.51; Number of the Biting Attacks (mean ± S.E.M.), Test Compound-Treated Group ([1]; 2.5 mg/kg): 36.9 ± 7.81; response vs control in vivo at 0.63 mg/kg [1, 2]: 970%; response vs control in vivo at 2.5 mg/kg [1, 4]: 540%
CCCn1c(=O)c2c(nc(/C=C/c3ccccc3)n2C)n(CCC)c1=O [Compound 3, (E)-7-Methyl-1,3-dipropyl-8-styrylxanthine]	26.1 ± 5.42	> 300 mg/kg	340%	–
CCn1c(=O)c2c(nc(/C=C/c3cccc(Br)c3)n2C)n(CC)c1=O [Compound 162, (E)-8-(3-Bromostyryl)-1,3-diethyl-7-methylxanthine]	17.9 ± 6.67	> 100 mg/kg	850%	–
CCn1c(=O)c2c(nc(/C=C/c3cc(OC)c4c(c3)OCO4)n2C)n(CC)c1=O [Compound 179, (E)-1,3-Diethyl-8-(3-methoxy-4,5-methylenedioxystyryl)7-methylxanthine]	67.7 ± 16.08	> 100 mg/kg	–	–
CCCOc1ccc(/C=C/c2nc3c(c(=O)n(CC)c(=O)n3CC)n2C)cc1 [Compound 126, (E)-1,3-Diethyl-7-methyl-8-(4-propoxystyryl)xanthine]	80.0 ± 13.93	> 300 mg/kg	–	–
CCCn1c(=O)c2c(nc(/C=C/c3ccc(OC)c(C)c3C)n2C)n(CCC)c1=O [Compound 14, (E)-8-(4-Methoxy-2,3-dimethylstyryl)-7-methyl-1,3-dipropylxanthine]	–	> 300 mg/kg	–	Number of the Biting Attacks (mean ± S.E.M.), Test Compound-Treated Group ([1]; 2.5 mg/kg): 40.7 ± 8.50; response vs control in vivo at 2.5 mg/kg [1, 4]: 730%
CCn1c(=O)c2c(nc(/C=C/c3cc(OC)cc(OC)c3)n2C)n(CC)c1=O [Compound 130, (E)-8-(3,5-Dimethoxystyryl)-1,3-diethyl-7-methyl-xanthine]	52.2 ± 11.79	> 300 mg/kg	480%	–
CCn1c(=O)c2c(nc(/C=C/c3ccc(OC)c(OC)c3)n2C)n(CC)c1=O [Compound 74, (E)-8-(3,4-Dimethoxystyryl)-1,3-diethyl-7-methylxanthine]	73.3 ± 8.75	> 300 mg/kg	–	Number of the Biting Attacks (mean ± S.E.M.), Test Compound-Treated Group ([1]; 0.63 mg/kg): 23.2 ± 5.19; Number of the Biting Attacks (mean ± S.E.M.), Test Compound-Treated Group ([1]; 2.5 mg/kg): 51.3 ± 8.70; response vs control in vivo at 0.63 mg/kg [1, 2]: 380%; response vs control in vivo at 2.5 mg/kg [1, 4]: 840%
CCn1c(=O)c2c(nc(/C=C/c3ccc(OC)c(F)c3)n2C)n(CC)c1=O [Compound 173, (E)-1,3-Diethyl-8-(3-fluoro-4-methoxystyryl)-7-methylxanthine]	46.8 ± 14.89	> 100 mg/kg	620%	–
CCn1c(=O)c2c(nc(/C=C/c3ccc(OC)c(C)c3)n2C)n(CC)c1=O [Compound 175, (E) -1,3-Diethyl-8-(4-methoxy-3-methylstyryl)-7-methylxanthine]	49.1 ± 15.59	> 100 mg/kg	790%	–
CCn1c(=O)c2c(nc(/C=C/c3ccc(O)cc3)n2C)n(CC)c1=O [Compound 184, (E)-1,3-Diethyl-8-(4-hydroxystyryl)-7-methylxanthine]	77.1 ± 11.47	> 100 mg/kg	–	–
CCCCOc1ccc(/C=C/c2nc3c(c(=O)n(CC)c(=O)n3CC)n2C)cc1 [Compound 148, (E)-8-(4-Butoxystyryl)-1,3-diethyl-7-methylxanthine]	46.3 ± 9.40	> 100 mg/kg	–	–
COc1cc(/C=C/c2nc3c(c(=O)n(C)c(=O)n3C)n2C)cc(OC)c1OC [Compound 2, (E)-8-(3,4,5-trimethoxystyryl)caffeine]	–	> 300 mg/kg	–	Number of the Biting Attacks (mean ± S.E.M.), Test Compound-Treated Group ([1]; 1.25 mg/kg): 29.0 ± 7.9; response vs control in vivo at 1.25 mg/kg ([1]; Mus musculus, 1.25 mg/kg, read-out: Number of the Attacks of Test Compound-Treated Group/Number of the Attacks of Control Group): 470%
